Tests used:
AMPA receptors [1] = assay: AMPA receptor binding test (in vitro autoradiography method); set-up: species or system SD rats; conditions: acute rat brain section including the striatum; [^11C] K-2; Fig. 1
Description: As rats, adult male SD rats (Charles River, Japan) which were […] were used. An acute brain section which included the striatum and whose thickness was 200 µm was produced, was placed on a cell strainer and was left in an oxygenated ACSF (artificial cerebrospinal fluid) for 60 minutes. 12 ml of 100 µM PEPA (ACSF containing 1% DMSO) was adjusted, and [^11C] K-2 was added thereto so as to achieve 20 nM, and the resultant solution was left for 60 minutes. After the reaction, the resultant solution was washed with the ACSF for 10 seconds three times, and was finally washed with distilled water for 10 seconds. The cell strainer was cut out so as to be slightly larger than the brain section after the reaction, and was exposed to an imaging plate for 2 hours. The imaging plate after the exposure was imaged with Typhoon (GE Healthcare Japan) (resolution of 25 pixels).

AMPA receptors [2] = assay: AMPA receptor binding test (electrophysiological verification, whole-cell recording of AMPA current in acute hippocampal section); format: cell-based, SD rats; conditions: pyramidal cell in CA1, compound administered for 15 minutes, Fig. 2
Description: Male SD rats which were 7 to 8 weeks old were used. The rat was decapitated under anesthesia with isoflurane, and an acute brain section which included the hippocampus and whose thickness was 400 µm was produced with a vibratome (VT1000; Leica Camera AG). The section was left in the ACSF at room temperature for 60 minutes, and then an AMPA current was measured by a whole-cell recording method. Under conditions in which the ACSF was refluxed at a rate of 3 ml/minute, only the AMPA current was isolated by administration of picrotoxin and APV. An exciting electrode was placed on a Schaffer fiber, and a recording electrode was placed on a pyramidal cell in CA1. The whole-cell recording was performed with a potential fixed to -80 mV, and a stimulus of 100 microseconds was applied every 30 seconds. The AMPA current in a ground state was recorded for 5 minutes, then K-2 or K-4 was administered for 15 minutes and thereafter the AMPA current was recorded for 30 minutes. When the section was left and when the section was refluxed, the ACSF was saturated with 95% O2/5% CO2 and was then used, and the composition of the ACSF was as follows; 119 mM NaCl, 2.5 mM KCl, 2.5 mM CaCl2, 1.5 mM MgSO4, 26 mM NaHCO3 and 1 mM NaH2PO4. […]

WKY rat = assay: Forced swimming test using rat; format: in vivo; conditions: acute administration, intravenous, 30 minutes before test; 1.0 mg/kg; Figs. 8, 9 and 10
Description: In a forced swimming test, AMPA receptor-binding compounds K-2 and K-4 were dissolved in 100% DMSO (Nacalai Tesque, Inc. Japan) so as to have a concentration of 2.1 mM, were diluted with saline immediately before being administered (15% DMSO, 320 µM) and were intravenously administered to the rat with an administered amount of 5 µl/weight (g) such that the administered amount fell within a range of 1 mg/kg to 1.5 mg/kg.
In all animal experiments, the deliberation and the approval of the animal experiment committee in Yokohama City University were received (approval number: F-A-15-051). As rats, adult male Wistar rats which were 6 to 10 weeks old and Wistar Kyoto rats (WKY rats) which were depression model rats (Charles River, Japan) were used. In order to acquire a route for the repeated administration of K-2, a jugular vein cannula indwelling surgery was performed a week before the experiment. The rat was made to fall sleep with isoflurane (DS Pharma Animal Health, Japan), and thereafter while anesthesia was maintained at an isoflurane concentration of 1.5% (air 2 L/minute), the jugular vein cannula indwelling surgery was performed. The skin of the neck was incised about 3 cm such that subcutaneous fat was opened, and thus the jugular vein was exposed. A needle to which a cannula tube was fitted was made to penetrate the jugular vein, then the cannula tube was removed from the needle and the tip of the cannula tube was inserted 2.5 cm into the jugular vein so as to be fixed near the insertion portion with sutures. The opposite side of the cannula tube was exposed to the outside of the body through the back of the rat, a plug was fitted so as to prevent backflow and the opened skin was sutured. After the completion of the surgery, the rat was returned to a home cage.
The forced swimming test was performed in a pre-administration experiment on the day before the administration of the drug, in an acute administration experiment on the first day of the administration of the drug and in a chronic administration experiment on the seventh day of the administration of the drug. […]

Kd (AMPA receptors [1]) [nM] | SMILES | binding affinity to the AMPA receptors (AMPA receptors [2]) | immobility time (WKY rat)
47.9 | CN(CCSc1cc(F)c(OCC(N)=O)c(F)c1)S(=O)(=O)c1ccccc1 [K-2, {4-[2-(benzenesulfonyl-methyl-amino)-ethylsulfanil]-2,6-difluoro-phenoxy}-acetamide] | indicated binding affinity | –
– | CNC(=O)COc1c(F)cc(SCCN(C)S(=O)(=O)c2ccccc2)cc1F [K-32, {4-[2-(benzenesulfonyl-methyl-amino)-ethylsulfanil]-2,6-difluoro-phenoxy}-N-methyl-acetamide] | – | tendency that the immobility time was lower
– | CCN(CC)C(=O)COc1c(F)cc(SCCN(C)S(=O)(=O)c2ccccc2)cc1F [K-30, {4-[2-(benzenesulfonyl-methyl-amino)-ethylsulfanil]-2,6-difluoro-phenoxy}-N,N-diethyl-acetamide] | – | tendency that the immobility time was lower
– | CN(C)C(=O)COc1c(F)cc(SCCN(C)S(=O)(=O)c2ccccc2)cc1F [K-4, {4-[2-(benzenesulfonyl-methyl-amino)-ethylsulfanil]-2,6-difluoro-phenoxy}-N,N-dimethyl-acetamide] | indicated binding affinity | –
– | CN(C)C(=O)COc1c(F)cc(SCCN(C)S(=O)(=O)c2ccc(F)cc2)cc1F [K-26, {4-[2-(4-fluoro-benzenesulfonyl-methyl-amino)-ethylsulfanil]-2,6-difluoro-phenoxy}-N,N-dimethyl-acetamide] | – | tendency that the immobility time was lower
